Results on eight molecules are retold here after ChEMBL document CHEMBL1201862, “PubChem BioAssay data set” (2004).

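Method: 48-hour compound exposure of cells in 96-well plates, five concentrations, linear interpolation of endpoints. GI50 marks 50% less growth.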 Active and inactive are the calls of the source. Rule as the data show it: active = GI50 up to about 1.1 µM and inactive = higher.

Test systems include COLO 205; HT-29; BT-549; T47D; NCI-H460; SF-539; M14; DU-145; MDA-MB-435; K562; SK-OV-3; HCT-116; HL-60; SK-MEL-28; 786-0; Malme-3M; RPMI-8226; SF-268; HOP-62; KM-20L2.
What all share (test): NCI tumour cell line growth inhibition, 48 h

For `O=C(NNc1ccccc1)c1ccc(Cl)c(Cl)c1`, the GI50 is 0.169 µM (active) in the experiment with COLO 205; 15.7 µM (inactive) in the experiment on HT-29; 6.81 µM (inactive) with BT-549; 0.918 µM (active) in the experiment with T47D; 0.219 µM (active) with NCI-H460; 0.0718 µM (active) in the experiment with SF-539. For the same molecule, the GI50 was 0.324 µM (active) in the experiment with M14; 26.9 µM (inactive) with DU-145; 0.206 µM (active) in the experiment with MDA-MB-435; 0.0281 µM (active) in the experiment with K562; 21.1 µM (inactive) in the experiment with SK-OV-3; 14 µM (inactive) in the experiment on HCT-116. Also, the GI50 in the experiment on HL-60 was 0.0569 µM (active); in the experiment on SK-MEL-28, > 100 µM (inactive); in the experiment on 786-0, 41 µM (inactive); with Malme-3M, 18.6 µM (inactive); with RPMI-8226 it was 0.603 µM (active); with SF-268, 1.45 µM (inactive). In addition, the GI50 with HOP-62 was 54.6 µM (inactive).
`Sc1nnc(-c2cccnc2)[nH]1`: the GI50 in the experiment on COLO 205, with HT-29, in the experiment with NCI-H460, in the experiment with M14, in the experiment on SK-OV-3 and with HCT-116 was > 100 µM (inactive) in each case. The GI50 in the experiment on HL-60, in the experiment on SK-MEL-28, with 786-0, in the experiment with KM-20L2, in the experiment with Malme-3M and with RPMI-8226 was > 100 µM (inactive) each time. Besides, the GI50 in the experiment with SF-268 and in the experiment with HOP-62 was > 100 µM (inactive) each time.
Turning to `CCNC(=O)Cc1nc2c(O)ncnc2n1C1OC(CO)C(O)C1O` (configuration not stated), the GI50 in the experiment on COLO 205, in the experiment on HT-29, in the experiment with BT-549, with T47D, with NCI-H460 and in the experiment on SF-539 was > 100 µM (inactive) in each case. Also, the GI50 in the experiment with M14, in the experiment with DU-145, with MDA-MB-435, with K562, with SK-OV-3 and in the experiment with HCT-116 was > 100 µM (inactive) throughout. Besides, the GI50 with HL-60, in the experiment with SK-MEL-28, with 786-0, with Malme-3M, in the experiment on RPMI-8226 and in the experiment on SF-268 was > 100 µM (inactive) in each case. Also, the GI50 with HOP-62 was > 100 µM (inactive).
Regarding `COC(=O)CNC(=O)C(Cc1ccccc1)NC(=O)c1ccc(-c2ccc(Cl)cc2Cl)o1` (configuration not stated), the GI50 is 14.6 µM (inactive) with COLO 205; 14.4 µM (inactive) with HT-29; 26.4 µM (inactive) with BT-549; 20.7 µM (inactive) with T47D; 15.2 µM (inactive) with NCI-H460; 36.3 µM (inactive) in the experiment on SF-539. Also, the GI50 in the experiment with M14 was 30.9 µM (inactive); in the experiment with DU-145 it was 37.6 µM (inactive); in the experiment on MDA-MB-435 it was 26.9 µM (inactive); in the experiment on K562, 21.3 µM (inactive); with SK-OV-3, 24.9 µM (inactive); with HCT-116, 14.8 µM (inactive). For the same molecule, the GI50 with HL-60 was 12.2 µM (inactive); in the experiment on SK-MEL-28, 43.8 µM (inactive); with 786-0, 16.9 µM (inactive); in the experiment with Malme-3M, 21.5 µM (inactive); in the experiment with RPMI-8226, 12.3 µM (inactive); with SF-268, 19.8 µM (inactive). Besides, the GI50 with HOP-62 was 26.8 µM (inactive).
`Cc1ccccc1N(C)S(=O)(=O)c1ccccc1[N+](=O)[O-]`: the GI50 with COLO 205 is 13.1 µM (inactive); in the experiment with HT-29 it was 32.2 µM (inactive); in the experiment with BT-549 it was 33 µM (inactive); in the experiment with T47D it was 58.1 µM (inactive); in the experiment on NCI-H460 it was 36.1 µM (inactive); with SF-539, 36.5 µM (inactive). Moreover, the GI50 in the experiment with M14 is 20.8 µM (inactive); in the experiment on DU-145, > 100 µM (inactive); in the experiment with MDA-MB-435 it was 33.4 µM (inactive); in the experiment on K562 it was 28.7 µM (inactive); in the experiment on SK-OV-3, 53.6 µM (inactive); with HCT-116, 41.1 µM (inactive). Moreover, the GI50 in the experiment on HL-60 was 27.9 µM (inactive); in the experiment on SK-MEL-28 it was 54.1 µM (inactive); with 786-0, 87.3 µM (inactive); in the experiment on Malme-3M it was > 100 µM (inactive); in the experiment with RPMI-8226 it was 30.1 µM (inactive); in the experiment with SF-268, 40.7 µM (inactive). The GI50 in the experiment with HOP-62 is 48.2 µM (inactive).
Take `COc1ccc2c(c1)C(=O)C1(C2)[C@H](c2ccccc2)C2C(=O)c3cc(OC)ccc3C2[C@H]1c1ccccc1` (some centres not stated): the GI50 in the experiment on COLO 205, with HT-29, in the experiment on BT-549, with T47D, in the experiment with NCI-H460 and in the experiment on SF-539 was > 100 µM (inactive) throughout. In addition, the GI50 in the experiment on M14, in the experiment on DU-145, with MDA-MB-435, in the experiment with K562, with SK-OV-3 and with HCT-116 was > 100 µM (inactive) each time. The GI50 in the experiment on HL-60 is 6.21 µM (inactive); with SK-MEL-28 it was > 100 µM (inactive); in the experiment on 786-0, > 100 µM (inactive); in the experiment on Malme-3M, > 100 µM (inactive); in the experiment with RPMI-8226, 43.7 µM (inactive); with SF-268, > 100 µM (inactive). The GI50 in the experiment on HOP-62 is > 100 µM (inactive).
As to `Fc1cccc(F)c1C1SCc2nc3cc(Cl)ccc3n21` (configuration not stated), the GI50 in the experiment on COLO 205 was 17.9 µM (inactive); in the experiment with HT-29, 15.2 µM (inactive); with BT-549, 21.9 µM (inactive); with T47D, 31.2 µM (inactive); in the experiment on NCI-H460 it was 41.5 µM (inactive); in the experiment on SF-539 it was 80.9 µM (inactive). Also, the GI50 in the experiment on M14 is 31 µM (inactive); with DU-145, 68.5 µM (inactive); in the experiment on MDA-MB-435 it was 33 µM (inactive); in the experiment on K562, 35.1 µM (inactive); with SK-OV-3, 80.2 µM (inactive); in the experiment with HCT-116, 18.5 µM (inactive). Besides, the GI50 in the experiment with HL-60 is 14 µM (inactive); with SK-MEL-28, 50.8 µM (inactive); in the experiment with 786-0 it was 25.7 µM (inactive); in the experiment on Malme-3M, 17 µM (inactive); in the experiment on RPMI-8226, 22.7 µM (inactive); with SF-268, > 100 µM (inactive). Moreover, the GI50 in the experiment on HOP-62 was > 100 µM (inactive).
As to `Clc1ccc2c(NCCNc3ccnc4cc(Cl)ccc34)ccnc2c1`, the GI50 is 14.6 µM (inactive) in the experiment with COLO 205; 15.3 µM (inactive) in the experiment with HT-29; 19.2 µM (inactive) in the experiment with BT-549; 23.6 µM (inactive) with T47D; 14 µM (inactive) with NCI-H460; 12 µM (inactive) with SF-539. Also, the GI50 is 16.9 µM (inactive) with M14; 22.8 µM (inactive) in the experiment on DU-145; 17.8 µM (inactive) in the experiment with MDA-MB-435; 12.3 µM (inactive) in the experiment with K562; 17.7 µM (inactive) in the experiment with SK-OV-3; 16.9 µM (inactive) in the experiment on HCT-116. Also, the GI50 in the experiment on HL-60 was 14.6 µM (inactive); with SK-MEL-28, 17.3 µM (inactive); with 786-0, 14.3 µM (inactive); in the experiment on Malme-3M, > 100 µM (inactive); in the experiment on RPMI-8226 it was 20.6 µM (inactive); with SF-268, 25.9 µM (inactive). In the experiment on HOP-62, the GI50 is 16.2 µM (inactive).
